Results reported in the supplement of paper PMC10307832.

Assays:
Assay in all cases: relative viability (nuclei count vs DMSO), 5 days (fraction); higher = more cells survive
COR-L23 = system: COR-L23
In short: (§1)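 Dosing by pin tool came one day after lung cancer cell lines were seeded in 1536-well plates, using either one drug or a fixed anchor-drug dose plus five library-drug doses (not always all listed) in √10 steps. After 5 days, nuclei were counted on 4× images. Relative viability is treated-well nuclei count divided by vehicle-well nuclei count, and values are medians of duplicate plates.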

NCI-H1944 = system: NCI-H1944
In short: as §1

EMC-BAC-2 = system: EMC-BAC-2
In short: as §1

HCC-366 = system: HCC-366
In short: as §1

NCI-H2228 = system: NCI-H2228
In short: as §1

A-427 = system: A-427
In short: as §1

HCC-15 = system: HCC-15
In short: as §1

NCI-H1734 = system: NCI-H1734
In short: as §1

NCI-H2023 = system: NCI-H2023
In short: as §1

UMC-11 = system: UMC-11
In short: as §1

HCC-78 = system: HCC-78
In short: as §1

NCI-H1993 = system: NCI-H1993
In short: as §1

NCI-H1793 = system: NCI-H1793
In short: as §1

NCI-H1650 = system: NCI-H1650
In short: as §1

NCI-H838 = system: NCI-H838
In short: as §1

NCI-H2405 = system: NCI-H2405
In short: as §1

NCI-H23 = system: NCI-H23
In short: as §1

HARA = system: HARA
In short: as §1

LK-2 = system: LK-2
In short: as §1

ABC-1 = system: ABC-1
In short: as §1

LC-2-ad = system: LC-2-ad
In short: as §1

SK-LU-1 = system: SK-LU-1
In short: as §1

NCI-H2009 = system: NCI-H2009
In short: as §1

C[C@@H]1CN(CC(=O)Nc2ccc3c(c2)Cc2cccc(-c4cc(=O)cc(N5CCOCC5)o4)c2S3)C[C@H](C)O1 + CS(=O)(=O)CCNCc1ccc(-c2ccc3ncnc(Nc4ccc(OCc5cccc(F)c5)c(Cl)c4)c3c2)o1 [Lapatinib] (partner 2 µM)
relative viability (COR-L23; first compound 0.04 µM): 0.893 | relative viability (COR-L23; first compound 0.1265 µM): 1.08 | relative viability (COR-L23; first compound 0.4 µM): 1.12 | relative viability (COR-L23; first compound 4 µM): 1.05 | relative viability (NCI-H1944; first compound 0.1265 µM): 0.803 | relative viability (NCI-H1944; first compound 0.4 µM): 0.977 | relative viability (NCI-H1944; first compound 4 µM): 0.876 | relative viability (EMC-BAC-2; first compound 0.04 µM): 0.903 | relative viability (EMC-BAC-2; first compound 0.1265 µM): 0.934 | relative viability (EMC-BAC-2; first compound 0.4 µM): 0.775 | relative viability (EMC-BAC-2; first compound 4 µM): 0.827 | relative viability (HCC-366; first compound 0.04 µM): 0.383 | relative viability (HCC-366; first compound 0.1265 µM): 0.974 | relative viability (HCC-366; first compound 0.4 µM): 1.17 | relative viability (HCC-366; first compound 4 µM): 0.824 | relative viability (NCI-H2228; first compound 0.04 µM): 1.23 | relative viability (NCI-H2228; first compound 0.1265 µM): 1.05 | relative viability (NCI-H2228; first compound 0.4 µM): 0.974 | relative viability (NCI-H2228; first compound 4 µM): 0.618 | relative viability (A-427; first compound 0.04 µM): 0.898 | relative viability (A-427; first compound 0.1265 µM): 1.05 | relative viability (A-427; first compound 0.4 µM): 1.18 | relative viability (A-427; first compound 4 µM): 1.01 | relative viability (HCC-15; first compound 0.04 µM): 0.866 | relative viability (HCC-15; first compound 0.1265 µM): 0.736 | relative viability (HCC-15; first compound 0.4 µM): 0.929 | relative viability (HCC-15; first compound 4 µM): 0.763 | relative viability (NCI-H1734; first compound 0.04 µM): 1.02 | relative viability (NCI-H1734; first compound 0.1265 µM): 1.17 | relative viability (NCI-H1734; first compound 0.4 µM): 1.03 | relative viability (NCI-H1734; first compound 4 µM): 1.23 | relative viability (NCI-H2023; first compound 0.04 µM): 0.176 | relative viability (NCI-H2023; first compound 0.1265 µM): 0.793 | relative viability (NCI-H2023; first compound 0.4 µM): 0.536 | relative viability (NCI-H2023; first compound 4 µM): 0.719 | relative viability (UMC-11; first compound 0.04 µM): 0.984 | relative viability (UMC-11; first compound 0.1265 µM): 0.927 | relative viability (UMC-11; first compound 0.4 µM): 1.1 | relative viability (UMC-11; first compound 4 µM): 0.694 | relative viability (HCC-78; first compound 0.04 µM): 0.64 | relative viability (HCC-78; first compound 0.1265 µM): 0.705 | relative viability (HCC-78; first compound 0.4 µM): 0.702 | relative viability (HCC-78; first compound 4 µM): 0.703 | relative viability (NCI-H1993; first compound 0.04 µM): 0.862 | relative viability (NCI-H1993; first compound 0.1265 µM): 0.86 | relative viability (NCI-H1993; first compound 0.4 µM): 0.812 | relative viability (NCI-H1993; first compound 4 µM): 0.833 | relative viability (NCI-H1793; first compound 0.04 µM): 0.809 | relative viability (NCI-H1793; first compound 0.1265 µM): 0.743 | relative viability (NCI-H1793; first compound 0.4 µM): 0.734 | relative viability (NCI-H1793; first compound 4 µM): 0.649 | relative viability (NCI-H1650; first compound 0.04 µM): 0.287 | relative viability (NCI-H1650; first compound 0.1265 µM): 0.812 | relative viability (NCI-H1650; first compound 0.4 µM): 0.719 | relative viability (NCI-H1650; first compound 4 µM): 0.588 | relative viability (NCI-H838; first compound 0.04 µM): 0.911 | relative viability (NCI-H838; first compound 0.1265 µM): 0.911 | relative viability (NCI-H838; first compound 0.4 µM): 0.883 | relative viability (NCI-H838; first compound 4 µM): 0.781 | relative viability (NCI-H2405; first compound 0.04 µM): 0.879 | relative viability (NCI-H2405; first compound 0.1265 µM): 1.11 | relative viability (NCI-H2405; first compound 0.4 µM): 1.04 | relative viability (NCI-H2405; first compound 4 µM): 1.07 | relative viability (NCI-H23; first compound 0.04 µM): 0.886 | relative viability (NCI-H23; first compound 0.1265 µM): 1.16 | relative viability (NCI-H23; first compound 0.4 µM): 1.01 | relative viability (NCI-H23; first compound 4 µM): 1.04 | relative viability (HARA; first compound 0.04 µM): 0.732 | relative viability (HARA; first compound 0.1265 µM): 0.613 | relative viability (HARA; first compound 0.4 µM): 0.796 | relative viability (HARA; first compound 4 µM): 0.738 | relative viability (LK-2; first compound 0.1265 µM): 0.938 | relative viability (LK-2; first compound 0.4 µM): 0.936 | relative viability (LK-2; first compound 4 µM): 0.948 | relative viability (ABC-1; first compound 0.04 µM): 0.964 | relative viability (ABC-1; first compound 0.1265 µM): 1.06 | relative viability (ABC-1; first compound 0.4 µM): 1.22 | relative viability (ABC-1; first compound 4 µM): 1.21 | relative viability (LC-2-ad; first compound 0.04 µM): 1 | relative viability (LC-2-ad; first compound 0.1265 µM): 0.928 | relative viability (LC-2-ad; first compound 0.4 µM): 0.672 | relative viability (LC-2-ad; first compound 4 µM): 0.875 | relative viability (SK-LU-1; first compound 0.04 µM): 0.869 | relative viability (SK-LU-1; first compound 0.1265 µM): 0.959 | relative viability (SK-LU-1; first compound 0.4 µM): 0.877 | relative viability (SK-LU-1; first compound 4 µM): 0.707 | relative viability (NCI-H2009; first compound 0.04 µM): 0.486 | relative viability (NCI-H2009; first compound 0.1265 µM): 0.846 | relative viability (NCI-H2009; first compound 0.4 µM): 0.964 | relative viability (NCI-H2009; first compound 4 µM): 0.687
